ChEMBL document CHEMBL4406886, “Discovery of arylamide-5-anilinoquinazoline-8-nitro derivatives as VEGFR-2 kinase inhibitors: Synthesis, in vitro biological evaluation and molecular docking” (Bioorg Med Chem Lett, 2019)
Activity calls are given as the source filed them. The rule behind the calls is not given here.

Legend:
HUVEC = assay: Antiproliferative activity against human HUVEC cells expressing VEGFR2 assessed as cell growth inhibition measured after 48 hrs by MTT assay; type: functional, cell-based
A549 = assay: Antiproliferative activity against human A549 cells expressing EGFR assessed as cell growth inhibition measured after 48 hrs by MTT assay; type: functional, cell-based; conditions: A549, 48 h
MDA-MB-231 = assay: Antiproliferative activity against human MDA-MB-231 cells expressing EGFR assessed as cell growth inhibition measured after 48 hrs by MTT assay; type: functional, cell-based; conditions: MDA-MB-231, 48 h
HepG2 [1] = assay: Antiproliferative activity against human HepG2 cells expressing VEGFR2 assessed as cell growth inhibition measured after 48 hrs by MTT assay; type: functional, cell-based; conditions: HepG2, 48 h
[2] = biological target: T1, Vascular endothelial growth factor receptor 2 (Homo sapiens, UniProt P35968); conditions: at 1 µM
T1 sequence (P35968 whole entry): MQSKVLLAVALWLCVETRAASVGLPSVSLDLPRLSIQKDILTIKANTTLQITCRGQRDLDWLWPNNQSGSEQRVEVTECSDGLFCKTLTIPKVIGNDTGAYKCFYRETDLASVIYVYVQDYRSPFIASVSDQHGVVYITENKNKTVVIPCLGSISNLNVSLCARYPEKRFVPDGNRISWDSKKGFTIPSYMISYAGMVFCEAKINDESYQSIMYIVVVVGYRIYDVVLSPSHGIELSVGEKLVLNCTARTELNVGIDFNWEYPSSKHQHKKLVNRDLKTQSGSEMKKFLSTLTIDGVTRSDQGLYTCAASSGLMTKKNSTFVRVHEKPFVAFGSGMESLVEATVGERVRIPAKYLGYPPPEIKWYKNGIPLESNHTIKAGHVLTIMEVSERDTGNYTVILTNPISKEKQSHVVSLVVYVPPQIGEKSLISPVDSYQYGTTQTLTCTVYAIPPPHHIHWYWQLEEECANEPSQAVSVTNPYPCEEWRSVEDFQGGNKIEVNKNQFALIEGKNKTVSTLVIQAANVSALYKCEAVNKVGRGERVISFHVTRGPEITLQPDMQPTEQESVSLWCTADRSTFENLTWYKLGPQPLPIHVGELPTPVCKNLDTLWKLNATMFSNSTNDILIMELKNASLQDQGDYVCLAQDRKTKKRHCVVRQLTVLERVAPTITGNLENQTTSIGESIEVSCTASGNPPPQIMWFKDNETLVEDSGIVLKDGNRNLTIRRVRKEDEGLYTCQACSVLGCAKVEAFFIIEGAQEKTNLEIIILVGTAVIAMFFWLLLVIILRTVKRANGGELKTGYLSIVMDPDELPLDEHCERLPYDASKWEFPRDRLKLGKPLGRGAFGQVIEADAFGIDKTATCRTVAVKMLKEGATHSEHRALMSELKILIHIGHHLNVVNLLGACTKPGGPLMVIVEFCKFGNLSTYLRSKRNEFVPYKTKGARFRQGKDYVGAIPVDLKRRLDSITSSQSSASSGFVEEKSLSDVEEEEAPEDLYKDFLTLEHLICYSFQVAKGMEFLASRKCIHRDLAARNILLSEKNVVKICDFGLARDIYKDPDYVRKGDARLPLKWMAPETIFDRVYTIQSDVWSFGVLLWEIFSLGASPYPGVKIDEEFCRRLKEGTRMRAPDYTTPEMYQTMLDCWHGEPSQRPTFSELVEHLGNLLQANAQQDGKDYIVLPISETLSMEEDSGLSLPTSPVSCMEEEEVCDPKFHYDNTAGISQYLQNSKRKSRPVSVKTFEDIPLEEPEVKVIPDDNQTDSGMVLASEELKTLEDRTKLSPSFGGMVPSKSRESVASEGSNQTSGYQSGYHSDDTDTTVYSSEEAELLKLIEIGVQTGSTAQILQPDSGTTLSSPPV
Description: Inhibition of VEGFR2 (unknown origin) at 1 uM using poly (Glu,Tyr) 4:1 as substrate measured after 1 hr in presence of ATP by spectrophotometric analysis relative to control

[3] = biological target: Epidermal growth factor receptor (Homo sapiens) (UniProt P00533); assay: Inhibition of EGFR (unknown origin) at 1 uM using poly (Glu,Tyr) 4:1 as substrate measured after 1 hr in presence of ATP by spectrophotometric analysis relative to control
Epidermal growth factor receptor (Homo sapiens), sequence (P00533 whole entry): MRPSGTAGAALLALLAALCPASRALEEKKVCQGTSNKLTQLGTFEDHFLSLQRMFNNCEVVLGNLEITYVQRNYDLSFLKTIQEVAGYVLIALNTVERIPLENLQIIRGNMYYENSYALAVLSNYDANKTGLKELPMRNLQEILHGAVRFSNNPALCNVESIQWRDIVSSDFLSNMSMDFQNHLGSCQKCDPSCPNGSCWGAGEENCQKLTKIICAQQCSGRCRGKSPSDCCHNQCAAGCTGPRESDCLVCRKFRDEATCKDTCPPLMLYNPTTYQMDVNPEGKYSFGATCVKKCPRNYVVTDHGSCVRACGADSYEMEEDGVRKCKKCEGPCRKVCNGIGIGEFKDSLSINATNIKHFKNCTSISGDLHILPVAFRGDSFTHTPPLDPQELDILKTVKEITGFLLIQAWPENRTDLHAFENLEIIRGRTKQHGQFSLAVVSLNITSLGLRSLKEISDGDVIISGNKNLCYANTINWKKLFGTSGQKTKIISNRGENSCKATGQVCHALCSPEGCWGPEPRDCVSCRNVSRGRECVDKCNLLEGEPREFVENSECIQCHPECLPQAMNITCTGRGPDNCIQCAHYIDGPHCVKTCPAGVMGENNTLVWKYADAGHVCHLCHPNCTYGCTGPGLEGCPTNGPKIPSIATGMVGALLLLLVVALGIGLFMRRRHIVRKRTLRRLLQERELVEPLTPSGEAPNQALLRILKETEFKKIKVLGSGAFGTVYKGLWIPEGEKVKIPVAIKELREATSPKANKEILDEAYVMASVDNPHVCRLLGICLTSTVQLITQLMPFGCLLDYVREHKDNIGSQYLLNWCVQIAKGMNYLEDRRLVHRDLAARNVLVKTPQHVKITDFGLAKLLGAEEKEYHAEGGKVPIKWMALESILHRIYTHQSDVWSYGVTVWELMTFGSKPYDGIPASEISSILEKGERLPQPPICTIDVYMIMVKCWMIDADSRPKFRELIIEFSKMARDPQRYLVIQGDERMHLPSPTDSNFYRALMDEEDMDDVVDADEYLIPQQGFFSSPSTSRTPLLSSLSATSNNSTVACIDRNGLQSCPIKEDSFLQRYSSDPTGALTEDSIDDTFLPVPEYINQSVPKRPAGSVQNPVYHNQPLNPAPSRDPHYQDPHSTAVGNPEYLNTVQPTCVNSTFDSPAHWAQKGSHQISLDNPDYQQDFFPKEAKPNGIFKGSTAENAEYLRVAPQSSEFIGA

Chorioallantoic membrane = assay: Antiangiogenic activity in chicken fertilized egg chorioallantoic membrane assessed as decrease in blood vessel growth at 10 nM measured after 48 hrs by microscopic analysis; type: functional, tissue-based; conditions: Gallus gallus
L02 = assay: Cytotoxicity against human LO2 cells; type: cell-based
[4] = biological target: T1, Vascular endothelial growth factor receptor 2; assay: Inhibition of VEGFR2 (unknown origin) using poly (Glu,Tyr) 4:1 as substrate measured after 1 hr in presence of ATP by spectrophotometric analysis
HepG2 [5] = assay: Cell cycle arrest in human HepG2 cells assessed as accumulation at G1 phase at 10 nM measured after 6 hrs by propidium iodide staining based flow cytometry analysis (reference value: 47.9 %); type: functional
HepG2 [6] = assay: Induction of apoptosis in human HepG2 cells assessed as apoptotic cells at 10 nM measured after 6 to 24 hrs by dUTP-FITC/propidium iodide staining based flow cytometry analysis (reference value: 2.6 %); type: functional
HepG2 [7] = assay: Induction of apoptosis in human HepG2 cells assessed as apoptotic cells at 1 nM measured after 6 to 24 hrs by dUTP-FITC/propidium iodide staining based flow cytometry analysis (reference value: 2.6 %); type: functional
[8] = Solubility of compound; type: physicochemical
HepG2 [9] = assay: Cell cycle arrest in human HepG2 cells assessed as accumulation at G1 phase at 1 nM measured after 6 hrs by propidium iodide staining based flow cytometry analysis (reference value: 47.9 %); type: functional
HepG2 [10] = assay: Cell cycle arrest in human HepG2 cells assessed as accumulation at S phase at 10 nM measured after 6 hrs by propidium iodide staining based flow cytometry analysis (reference value: 0 %); type: functional
HepG2 [11] = assay: Induction of apoptosis in human HepG2 cells assessed as necrotic cells at 1 nM measured after 24 hrs by dUTP-FITC/propidium iodide staining based flow cytometry analysis (reference value: 0.2 %)
HepG2 [12] = assay: Cell cycle arrest in human HepG2 cells assessed as accumulation at G2 phase at 10 nM measured after 6 hrs by propidium iodide staining based flow cytometry analysis (reference value: 52.1 %); type: functional
HepG2 [13] = assay: Cell cycle arrest in human HepG2 cells assessed as accumulation at S phase at 1 nM measured after 6 hrs by propidium iodide staining based flow cytometry analysis (reference value: 0 %); type: functional
HepG2 [14] = assay: Cell cycle arrest in human HepG2 cells assessed as accumulation at G2 phase at 1 nM measured after 6 hrs by propidium iodide staining based flow cytometry analysis (reference value: 52.1 %); type: functional
HepG2 [15] = assay: Induction of apoptosis in human HepG2 cells assessed as necrotic cells at 10 nM measured after 24 hrs by dUTP-FITC/propidium iodide staining based flow cytometry analysis (reference value: 0.2 %)
HepG2 [16] = assay: Cell cycle arrest in human HepG2 cells assessed as accumulation at G0/G1 phase measured after 6 hrs by propidium iodide staining based flow cytometry analysis; type: functional

IC50 (A549)	IC50 (MDA-MB-231)	IC50 (HepG2 [1])	inhibition [2]	inhibition [3]	Structure (SMILES)	IC50 (HUVEC)	Activity (Chorioallantoic membrane)	other results
> 100 µM	> 100 µM	40.8 µM	58.2%	37.8%	Cc1cccc(C(=O)Nc2ccc(Nc3ccc([N+](=O)[O-])c4ncnc(O)c34)cc2)c1	47 µM	–	–
> 100 µM	95.8 µM	40.7 µM	60.3%	43.6%	COc1ccccc1C(=O)Nc1ccc(Nc2ccc([N+](=O)[O-])c3ncnc(O)c23)cc1	36.3 µM	–	–
> 100 µM	> 100 µM	42 µM	63.2%	27.7%	O=C(Nc1ccc(Nc2ccc([N+](=O)[O-])c3ncnc(O)c23)cc1)c1cccc(Cl)c1	36.7 µM	Active	–
> 100 µM	> 100 µM	64.2 µM	47.6%	36.7%	COc1cccc(C(=O)Nc2ccc(Nc3ccc([N+](=O)[O-])c4ncnc(O)c34)cc2)c1	57.8 µM	–	–
> 100 µM	> 100 µM	90.3 µM	21.6%	6.4%	Cc1ccccc1C(=O)Nc1cccc(Nc2ccc([N+](=O)[O-])c3ncnc(O)c23)c1	89.6 µM	–	–
90.3 µM	96.1 µM	28 µM	76.9%	50.3%	O=C(Nc1ccc(Nc2ccc([N+](=O)[O-])c3ncnc(O)c23)cc1)c1ccccc1Cl	26.5 µM	Active	–
85.8 µM	93.2 µM	21 µM	73.8%	42.1%	O=C(Nc1ccc(Nc2ccc([N+](=O)[O-])c3ncnc(O)c23)cc1)c1ccccc1F	23.8 µM	Active	–
91.6 µM	> 100 µM	30.1 µM	65.8%	41.7%	Cc1ccccc1C(=O)Nc1ccc(Nc2ccc([N+](=O)[O-])c3ncnc(O)c23)cc1	37.2 µM	–	–
> 100 µM	94.7 µM	18.5 µM	83.7%	57.2%	Cc1ccc(C(=O)Nc2ccc(Nc3ccc([N+](=O)[O-])c4ncnc(O)c34)cc2)cc1	14.3 µM	Active	IC50 (L02): 93.2 µM
83.3 µM	> 100 µM	36.1 µM	69.4%	36.9%	O=C(Nc1ccc(Nc2ccc([N+](=O)[O-])c3ncnc(O)c23)cc1)c1cccc(F)c1	38.9 µM	Active	–
87.4 µM	86.3 µM	7.41 µM	92.4%	53.8%	O=C(Nc1ccc(Nc2ccc([N+](=O)[O-])c3ncnc(O)c23)cc1)c1ccccc1	5.7 µM	Active	IC50 (L02): 65.3 µM; IC50 [4]: 0.735 µM

The remaining lines, values behind:

Structure (SMILES)	IC50 (A549)	IC50 (MDA-MB-231)	IC50 (HepG2 [1])	inhibition [2]	inhibition [3]	IC50 (HUVEC)	Activity (Chorioallantoic membrane)	other results
COc1ccccc1C(=O)Nc1cccc(Nc2ccc([N+](=O)[O-])c3ncnc(O)c23)c1	> 100 µM	> 100 µM	90.3 µM	26.9%	12.4%	82 µM	–	–
O=C(Nc1cccc(Nc2ccc([N+](=O)[O-])c3ncnc(O)c23)c1)c1cccc(F)c1	> 100 µM	> 100 µM	72.1 µM	38.1%	27.3%	74.2 µM	–	–
O=C(Nc1cccc(Nc2ccc([N+](=O)[O-])c3ncnc(O)c23)c1)c1ccccc1Cl	> 100 µM	> 100 µM	71.9 µM	30.1%	22.5%	74.6 µM	–	–
Cc1ccc(C(=O)Nc2ccc(CN3CCN(C)CC3)c(C(F)(F)F)c2)cc1C#Cc1cnc2cccnn12 [PONATINIB]	5.3 µM	10.5 µM	0.6 µM	–	–	0.5 µM	–	IC50 (L02): 64.7 µM
O=C(Nc1ccc(Nc2ccc([N+](=O)[O-])c3ncnc(O)c23)cc1)Nc1cc(C(F)(F)F)ccc1Cl	> 100 µM	> 100 µM	13.7 µM	102%	21.8%	2.1 µM	–	IC50 (L02): 84.2 µM; IC50 [4]: 0.0154 µM
O=C(Nc1cccc(Nc2ccc([N+](=O)[O-])c3ncnc(O)c23)c1)c1cccc(Cl)c1	> 100 µM	> 100 µM	93 µM	29.2%	26.3%	86.5 µM	–	–
Cc1cccc(C(=O)Nc2cccc(Nc3ccc([N+](=O)[O-])c4ncnc(O)c34)c2)c1	> 100 µM	> 100 µM	> 100 µM	18%	11.3%	93.6 µM	–	–
O=C(Nc1ccc(Nc2ccc([N+](=O)[O-])c3ncnc(O)c23)cc1)c1ccc(Cl)cc1	83 µM	95.1 µM	0.9 µM	97.9%	64.1%	1.6 µM	Active	IC50 (L02): 73.5 µM; IC50 [4]: 0.363 µM
O=C(Nc1cccc(Nc2ccc([N+](=O)[O-])c3ncnc(O)c23)c1)c1ccccc1	> 100 µM	> 100 µM	75.2 µM	37.8%	15.4%	79.1 µM	–	–
O=C(Nc1ccc(Nc2ccc([N+](=O)[O-])c3ncnc(O)c23)cc1)c1ccc(F)cc1	69 µM	58.4 µM	0.2 µM	102%	69.2%	0.5 µM	Active	Activity (HepG2 [5]): 41.7%; Activity (HepG2 [6]): 72.2%; Activity (HepG2 [7]): 34.3%; IC50 (L02): 63.2 µM; solubility [8]: Soluble; Activity (HepG2 [9]): 52.6%; Activity (HepG2 [10]): 34%; Activity (HepG2 [11]): 2.5%; Activity (HepG2 [12]): 24.3%; Activity (HepG2 [13]): 11.5%; Activity (HepG2 [14]): 35.9%; Activity (HepG2 [15]): 2.1%; Activity (HepG2 [16]): Dose-dependent effect; IC50 [4]: 0.0648 µM
O=C(Nc1cccc(Nc2ccc([N+](=O)[O-])c3ncnc(O)c23)c1)c1ccc(Cl)cc1	> 100 µM	> 100 µM	76.3 µM	38.5%	9.4%	73.8 µM	–	–
CNC(=O)c1cc(Oc2ccc(NC(=O)Nc3ccc(Cl)c(C(F)(F)F)c3)cc2)ccn1 [SORAFENIB]	8.1 µM	15.8 µM	3.6 µM	–	–	4.1 µM	Active	IC50 (L02): 72.9 µM
Cc1ccc(C(=O)Nc2cccc(Nc3ccc([N+](=O)[O-])c4ncnc(O)c34)c2)cc1	> 100 µM	> 100 µM	74 µM	32.7%	12.8%	80.5 µM	–	–
O=C(Nc1cccc(Nc2ccc([N+](=O)[O-])c3ncnc(O)c23)c1)c1ccccc1F	> 100 µM	> 100 µM	69.6 µM	35.8%	17.2%	70.4 µM	–	–
O=C(Nc1cccc(Nc2ccc([N+](=O)[O-])c3ncnc(O)c23)c1)c1ccc(F)cc1	95 µM	> 100 µM	68.5 µM	41.9%	18.5%	63.2 µM	–	–
